Assay results taken from patent US4833241A, “Anthracycline compound” (Kirin Beer Kabushiki Kaisha, priority 1986, dated 1989).
Read-outs that look alike come from different tables or passages of the source.

Assays:
[1] = Stability of M-R20X3 during measurements (1) through (4); type: physicochemical
P388 leukemia = assay: Antitumor activity in CDF1 mice with intraperitoneally transplanted P388 leukemia, i.v. administration, 30-day survival; type: in vivo; conditions: for ED (T/C 130%): Mus musculus, 720 h; for Increase in life span T/C (%): days 1 and 5, saline control = 100%
in vivo = conditions: mouse, iv

CC[C@@]1(O)C[C@H](O[C@H]2C[C@H](N3CCOCC3)[C@H](O)[C@H](C)O2)c2c(O)c3c(c(O)c2[C@H]1C(=O)O)C(=O)c1cccc(O)c1C3=O [M-R20X3, 3'-deamino-3'-(4-morpholinyl)-13-deoxo-10-hydroxycarbonylcarminomycin]
Stability (lability) [1]: extremely labile | Decomposition after completion of the measurements ([1]; measurements (1) through (4) carried out quickly): no decomposition was observed

CC[C@]1(O)Cc2c(O)c3c(c(O)c2[C@@H](O[C@H]2C[C@H](N4CCOCC4)[C@H](O)[C@H](C)O2)C1)C(=O)c1c(O)cccc1C3=O [M-R20X, 3'-deamino-3'-(4-morpholinyl)-13-deoxocarminomycin]
ED (T/C 130%) (P388 leukemia; iv, i.v., P388 leukemia in CDF1 mice, read-out: Dose for T/C = 130%): 2.5 mg/kg/day | LD50 (in vivo): 12.3 mg/kg

CC[C@@]1(O)C[C@H](O[C@H]2C[C@H](N3CCOCC3)[C@H](O)[C@H](C)O2)c2c(O)c3c(c(O)c2C1O)C(=O)c1cccc(O)c1C3=O (some centres unmarked) [M-R20X2, 3'-deamino-3'-(4-morpholinyl)-13-deoxo-10-hydroxycarminomycin]
Solubility (soluble in) (acidic water, basic water, methanol, ethanol, propanol, acetone, ethyl acetate, and chloroform): Soluble | Solubility (insoluble in) (water, hexane, cyclohexane, diethyl ether, and petroleum ether): Insoluble | ED (T/C 130%) (P388 leukemia; P388, iv, read-out: Dose for T/C = 130% (mg/kg/day)): 0.43 mg/kg/day | Therapeutic index (P388 leukemia; mouse, in vivo, iv): 4.7 | LD50 (in vivo): 3.55 mg/kg

COc1cccc2c1C(=O)c1c(O)c3c(c(O)c1C2=O)C[C@@](O)(C(=O)CO)C[C@@H]3O[C@H]1C[C@H](N)[C@H](O)[C@H](C)O1 [Adriamycin, reference compound]
Increase in life span T/C (%) (P388 leukemia; 1 mg/kg/day i.v.): 103% | Increase in life span T/C (%) (P388 leukemia; 2 mg/kg/day i.v.): 119% | Increase in life span T/C (%) (P388 leukemia; 4 mg/kg/day i.v.): 133% | Increase in life span T/C (%) (P388 leukemia; 8 mg/kg/day i.v.): 165% | Increase in life span T/C (%) (P388 leukemia; 12 mg/kg/day i.v.): 244%
